Assays:
[1] = system: human bladder neck strips from patients with BPH/LUTS; experiment: Organ bath, norepinephrine-contracted human bladder neck strips
Experimental: (§1) Organ Bath Experiments with Human Prostate and Bladder Tissues (FIGS. 10, 12, 19, and 20):
(§2) Specimens of human prostate and bladder neck were obtained from patients undergoing suprapubic adenomectomy (Millin's approach) for benign prostatic hyperplasia (BPH). […]
(§3) Human prostate and bladder neck specimens were cleaned of fat and connective tissue and cut into strips for organ bath assays. […] Tissues were subsequently exposed to 125 mM K^+ (equimolar substitution of […] in KHS) and contractile response was measured to check functionality. The relaxant effect induced by increasing doses of the NtB extract or the vehicle (distilled water) was evaluated in human prostate and bladder neck strips precontracted with 3-10 μM norepinephrine (NE) (80% of K^+-induced contraction, approximately) (FIG. 10). Relaxations of human prostate and bladder neck induced by PDES inhibition were evaluated by adding increasing concentrations of tadalafil (1 nM to 100 μM) on strips precontracted with NE and previously treated with NtB (10 mg/ml) or vehicle (distilled water) (FIG. 12). […] Concentration-response (relaxation) curves to lycopene (0.025 to 0.5 mg/ml) were also determined after NE-induced contraction in human bladder neck (FIG. 20A).

[2] = system: androgen-sensitive human prostate cancer cell line, LNCaP; experiment: XTT cell proliferation assay, LNCaP; format: cell-based
Experimental: (§4) Cell Proliferation Assays (FIGS. 7, 8, 16, and 17):
(§5) Human androgen-sensitive prostate cancer cell line, LNCaP, and androgen-insensitive prostate cancer cell line, PC-3 were cultured in RPMI-1640 medium supplemented with 2 mM L-glutamine and 10% fetal bovine serum (FBS). For proliferation assays LNCaP and PC-3 cells were seeded at 15,000 cells/well density in 24-well plates with complete medium (with 10% FBS). Cells were let to attach for 20 h and then, the culture medium was exchanged for fresh serum-free medium containing the respective treatments (androgens and test compounds). Viable cells content in each well was determined 72 h afterwards.
(§6) Proliferation was determined by the XTT cell viability assay (Cell Proliferation Kit II (XTT), Sigma-Aldrich, St. Louis, Mo., USA). This is a colorimetric assay that analyzes the number of viable cells by the cleavage of tetrazolium salts added to the culture medium. The cleavage product of tetrazolium salt XTT, in contrast to MTT, is soluble in water. The tetrazolium salt XTT is cleaved to formazan by a complex cellular mechanism. This bioreduction occurs in viable cells only. […] After this incubation period, the amount of formazan dye formed was quantitated using a plate reader. The measured absorbance at 490 nm directly correlates to the number of viable cells.

[3] = system: androgen-independent human prostate cancer cell line, PC-3; experiment: XTT cell proliferation assay, PC-3; format: cell-based; conditions: lycopene 0.1 and 0.25 mg/ml
Experimental: as §4, §5, §6

[4] = system: prostatic specific antigen (PSA) production by LNCaP; experiment: Androgen-stimulated PSA production (ELISA) in LNCaP cells; format: cell-based, human; conditions: testosterone or dihydrotestosterone (40 nM), 24 h; lycopene 0.1 and 0.25 mg/ml
Experimental: Prostatic-Specific Antigen (PSA) Determinations (FIGS. 9 and 18):
For this purpose, LNCaP cells were seeded at 25,000 cells/well in 24-well plates and let to grow in complete medium (10% FBS) at 80% confluence, approximately, that is typically achieved after 48 h. The culture medium was then exchanged for fresh serum-free medium containing the respective treatments (androgens and/or NtB and/or lycopene). Conditioned media was collected 24 h afterwards and PSA concentrations were determined by using a colorimetric ELISA kit following manufacturer's instructions (Ray Biotech, Norcross, Ga., USA).

[5] = system: human prostate strips from patients with BPH/LUTS; experiment: Organ bath, norepinephrine-contracted human prostate strips
Experimental: as §1, §2, §3

Which results are given for `CC(C)=CCC/C(C)=C/C=C/C(C)=C/C=C/C(C)=C/C=C/C=C(C)/C=C/C=C(C)/C=C/C=C(\C)CCC=C(C)C` [lycopene]?
relaxation (reversion of NE-induced contraction) of human bladder neck strips [1]: could have relaxant activity by itself; testosterone- or dihydrotestosterone-induced increase in proliferation of LNCaP cells ([2]; lycopene 0.25 mg/ml, T or DHT 40 nM): effectively reversed; proliferation of LNCaP cells in the absence of androgen stimulation ([2]; lycopene 0.1 and 0.25 mg/ml): did not significantly influence proliferation; proliferation of PC-3 cells in the absence of androgen stimulation [3]: did not significantly influence proliferation; proliferation of PC-3 cells in the presence of T or DHT ([3]; T or DHT 40 nM): failed to significantly reduce proliferation; androgen-stimulated PSA production in LNCaP cells [4]: prevented; relaxation (reversion of NE-induced contraction) of human prostate strips [5]: could have relaxant activity by itself

— patent US20190183952A1, “METHODS FOR PREPARING ACTIVE EXTRACT AND APPLICATION THEREOF” (BEIJING BOXIN NATURE BIOTECH LTD., priority 2016, published 2019)
